We go through 21 compounds from patent US8642590B2, “Alkylcyclohexylethers of dihydrotetraazabenzoazulenes” (Hoffmann-La Roche Inc., priority 2008, dated 2014).

Where a name gives a salt, the structure may show the parent alone.

In the assay the target is T1, human V1a receptor (Homo sapiens, UniProt P37288).
T1 construct: expressed in transfected cells; host or cells: HEK293 cells, transiently transfected; cell membranes prepared
T1 sequence (P37288 whole entry): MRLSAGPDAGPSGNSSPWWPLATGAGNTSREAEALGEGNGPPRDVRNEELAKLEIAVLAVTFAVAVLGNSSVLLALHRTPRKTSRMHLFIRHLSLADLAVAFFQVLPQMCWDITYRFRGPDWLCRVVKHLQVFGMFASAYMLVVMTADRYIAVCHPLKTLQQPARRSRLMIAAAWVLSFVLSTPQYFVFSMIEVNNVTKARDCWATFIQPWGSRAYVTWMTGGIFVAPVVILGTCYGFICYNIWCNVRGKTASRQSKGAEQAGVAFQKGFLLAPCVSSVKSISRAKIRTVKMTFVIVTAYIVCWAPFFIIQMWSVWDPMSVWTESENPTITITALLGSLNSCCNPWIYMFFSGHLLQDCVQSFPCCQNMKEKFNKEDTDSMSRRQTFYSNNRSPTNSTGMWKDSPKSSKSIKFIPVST
Nature of the assay: human V1a receptor binding study (3H-Vasopressin, SPA beads, HEK293 membranes). The conditions noted are these: membranes of HEK293 cells transiently transfected with human V1a receptor; 3H-Vasopressin; Ki calculated using the Cheng-Prussoff equation; read-out: pKi (hV1a) (converted). On the procedure:
The human V1a receptor was cloned by RT-PCR from total human liver RNA. The coding sequence was subcloned in an expression vector after sequencing to confirm the identity of the amplified sequence. […] Cell membranes were prepared from HEK293 cells transiently transfected with the expression vector and grown in 20 liter fermenters with the following protocol.
50 g of cells are resuspended in 30 ml freshly prepared ice cold Lysis buffer (50 mM HEPES, 1 mM EDTA, 10 mM magnesium dichloride adjusted to pH=7.4+complete cocktail of protease inhibitor (Roche Diagnostics)). Homogenized with Polytron for 1 min and sonicated on ice for 2×2 minutes at 80% intensity (Vibracell sonicator). The preparation is centrifuged 20 min at 500 g at 4° C., the pellet is discarded and the supernatant centrifuged 1 hour at 43,000 g at 4° C. (19,000 rpm). The pellet is resuspended in 12.5 ml Lysis buffer+12.5 ml Sucrose 20% and homogenized using a Polytron for 1-2 min. The protein concentration is determined by the Bradford method and aliquots are stored at −80° C. until use. For binding studies 60 mg Yttrium silicate SPA beads (Amersham) are mixed with an aliquot of membrane in binding buffer (50 mM Tris, 120 mM sodium chloride, 5 mM potassium chloride, 2 mM Calcium dichloride, 10 mM magnesium dichloride) for 15 minutes with mixing. 50 μl of bead/membrane mixture is then added to each well of a 96 well plate, followed by 50 μl of 4 nM 3H-Vasopressin (American Radiolabeled Chemicals). For total binding measurement 100 μl of binding buffer are added to the respective wells, for non-specific binding 100 μl of 8.4 mM cold vasopressin and for compound testing 100 μl of a serial dilution of each compound in 2% dimethyl sulfoxide. The plate is incubated 1 h at room temperature, centrifuged 1 min at 1000 g and counted on a Packard Top-Count. Non-specific binding counts are subtracted from each well and data is normalized to the maximum specific binding set at 100%. To calculate an IC 50 the curve is fitted using a non-linear regression model (XLfit) and the Ki is calculated using the Cheng-Prussoff equation.
As to `CCC(C)O[C@H]1CC[C@H](c2nnc3n2-c2ccc(Cl)cc2CN(C(=O)OC(C)(C)C)C3)CC1` (mixture of isomers) [Example 25, (RS)-trans-1-(4-sec-Butoxy-cyclohexyl)-8-chloro-4H,6H-2,3,5,10b-tetraaza-benzo[e]azulene-5-carboxylic acid tert-butyl ester], the Ki was 3.72 nM.

Regarding `CCC(C)O[C@H]1CC[C@H](c2nnc3n2-c2ccc(Cl)cc2CNC3)CC1` (mixture of isomers) [Example 26, (RS)-trans-1-(4-sec-Butoxy-cyclohexyl)-8-chloro-5,6-dihydro-4H-2,3,5,10b-tetraaza-benzo[e]azulene hydrochloride], the Ki was 12.6 nM.

For the compound `CCC(C)O[C@H]1CC[C@H](c2nnc3n2-c2ccc(Cl)cc2CN(C)C3)CC1` (mixture of isomers) [Example 27, (RS)-trans-1-(4-sec-Butoxy-cyclohexyl)-8-chloro-5-methyl-5,6-dihydro-4H-2,3,5,10b-tetraaza-benzo[e]azulene], the Ki is 2.09 nM.

`COCC(C)O[C@H]1CC[C@H](c2nnc3n2-c2ccc(Cl)cc2CN(C(=O)OC(C)(C)C)C3)CC1` (mixture of isomers) [Example 45, (RS)-trans-8-Chloro-1-[4-(2-methoxy-1-methyl-ethoxy)-cyclohexyl]-4H,6H-2,3,5,10b-tetraaza-benzo[e]azulene-5-carboxylic acid tert-butyl ester]: the Ki was 3.72 nM.

With `COCC(C)O[C@H]1CC[C@H](c2nnc3n2-c2ccc(Cl)cc2CNC3)CC1` (mixture of isomers) [Example 46, (RS)-trans-8-Chloro-1-[4-(2-methoxy-1-methyl-ethoxy)-cyclohexyl]-5,6-dihydro-4H-2,3,5,10b-tetraaza-benzo[e]azulene hydrochloride], the Ki is 117 nM.

As for `COCC(C)O[C@H]1CC[C@H](c2nnc3n2-c2ccc(Cl)cc2CN(C)C3)CC1` (mixture of isomers) [Example 47, (RS)-trans-8-Chloro-1-[4-(2-methoxy-1-methyl-ethoxy)-cyclohexyl]-5-methyl-5,6-dihydro-4H-2,3,5,10b-tetraaza-benzo[e]azulene], the Ki was 11.2 nM.

On to `CC(CO)O[C@H]1CC[C@H](c2nnc3n2-c2ccc(Cl)cc2CN(C(=O)OC(C)(C)C)C3)CC1` (mixture of isomers) [Example 50, (RS)-trans-8-Chloro-1-[4-(2-hydroxy-1-methyl-ethoxy)-cyclohexyl]-4H,6H-2,3,5,10b-tetraaza-benzo[e]azulene-5-carboxylic acid tert-butyl ester], for which the Ki was 2.69 nM.

In the case of `CC(CO)O[C@H]1CC[C@H](c2nnc3n2-c2ccc(Cl)cc2CNC3)CC1` (mixture of isomers) [Example 51, (RS)-trans-2-[4-(8-Chloro-5,6-dihydro-4H-2,3,5,10b-tetraaza-benzo[e]azulen-1-yl)-cyclohexyloxy]-propan-1-ol hydrochloride], the Ki was 186 nM.

In the case of `CC(CO)O[C@H]1CC[C@H](c2nnc3n2-c2ccc(Cl)cc2CN(C)C3)CC1` (mixture of isomers) [Example 52, (RS)-trans-2-[4-(8-Chloro-5-methyl-5,6-dihydro-4H-2,3,5,10b-tetraaza-benzo[e]azulen-1-yl)-cyclohexyloxy]-propan-1-ol], the Ki was 19.1 nM.

`CC(CF)O[C@H]1CC[C@H](c2nnc3n2-c2ccc(Cl)cc2CN(C)C3)CC1` (mixture of isomers) [Example 53, (RS)-trans-8-Chloro-1-[4-(2-fluoro-1-methyl-ethoxy)-cyclohexyl]-5-methyl-5,6-dihydro-4H-2,3,5,10b-tetraaza-benzo[e]azulene]: the Ki is 2.82 nM.

In the case of `CC(CC(F)(F)F)O[C@H]1CC[C@H](c2nnc3n2-c2ccc(Cl)cc2CN(C(=O)OC(C)(C)C)C3)CC1` (mixture of isomers) [Example 54, (RS)-trans-8-Chloro-1-[4-(3,3,3-trifluoro-1-methyl-propoxy)-cyclohexyl]-4H,6H-2,3,5,10b-tetraaza-benzo[e]azulene-5-carboxylic acid tert-butyl ester], the Ki is 8.51 nM.

Take `CC(CC(F)(F)F)O[C@H]1CC[C@H](c2nnc3n2-c2ccc(Cl)cc2CNC3)CC1` (mixture of isomers) [Example 55, (RS)-trans-8-Chloro-1-[4-(3,3,3-trifluoro-1-methyl-propoxy)-cyclohexyl]-5,6-dihydro-4H-2,3,5,10b-tetraaza-benzo[e]azulene hydrochloride]: the Ki was 75.9 nM.

For the compound `CC(CC(F)(F)F)O[C@H]1CC[C@H](c2nnc3n2-c2ccc(Cl)cc2CN(C)C3)CC1` (mixture of isomers) [Example 56, (RS)-trans-8-Chloro-5-methyl-1-[4-(3,3,3-trifluoro-1-methyl-propoxy)-cyclohexyl]-5,6-dihydro-4H-2,3,5,10b-tetraaza-benzo[e]azulene], the Ki was 6.76 nM.

With `CC[C@H](C)O[C@H]1CC[C@H](c2nnc3n2-c2ccc(Cl)cc2CN(C)C3)CC1` (single isomer, unassigned) [Example 28, (+)-trans-1-(4-sec-Butoxy-cyclohexyl)-8-chloro-5-methyl-5,6-dihydro-4H-2,3,5,10b-tetraaza-benzo[e]azulene], the Ki was 1.58 nM.

`CC[C@@H](C)O[C@H]1CC[C@H](c2nnc3n2-c2ccc(Cl)cc2CN(C)C3)CC1` (single isomer, unassigned) [Example 29, (−)-trans-1-(4-sec-Butoxy-cyclohexyl)-8-chloro-5-methyl-5,6-dihydro-4H-2,3,5,10b-tetraaza-benzo[e]azulene]: the Ki was 1.58 nM.

Turning to `CC(C)(C)OC(=O)N1Cc2cc(Cl)ccc2-n2c(nnc2[C@H]2CC[C@H](OC3CCCC3)CC2)C1` (stereo in doubt) [Example 36, trans-8-Chloro-1-(4-cyclopentyloxy-cyclohexyl)-4H,6H-2,3,5,10b-tetraaza-benzo[e]azulene-5-carboxylic acid tert-butyl ester], the Ki is 3.24 nM.

For the compound `COC[C@H](C)O[C@H]1CC[C@H](c2nnc3n2-c2ccc(Cl)cc2CN(C)C3)CC1` (stereo in doubt) [Example 48, (+)-trans-8-Chloro-1-[4-(2-methoxy-1-methyl-ethoxy)-cyclohexyl]-5-methyl-5,6-dihydro-4H-2,3,5,10b-tetraaza-benzo[e]azulene], the Ki is 47.9 nM.

As for `COC[C@@H](C)O[C@H]1CC[C@H](c2nnc3n2-c2ccc(Cl)cc2CN(C)C3)CC1` (stereo in doubt) [Example 49, (−)-trans-8-Chloro-1-[4-(2-methoxy-1-methyl-ethoxy)-cyclohexyl]-5-methyl-5,6-dihydro-4H-2,3,5,10b-tetraaza-benzo[e]azulene], the Ki was 5.5 nM.

For `CO[C@H]1CC[C@@H](c2nnc3n2-c2ccc(Cl)cc2CN(C)C3)CC1` [Example 1, cis-8-Chloro-1-(4-methoxy-cyclohexyl)-5-methyl-5,6-dihydro-4H-2,3,5,10b-tetraaza-benzo[e]azulene], the Ki is 93.3 nM.

Regarding `CCO[C@H]1CC[C@H](c2nnc3n2-c2ccc(Cl)cc2CN(C(=O)OC(C)(C)C)C3)CC1` [Example 2, trans-8-Chloro-1-(4-ethoxy-cyclohexyl)-4H,6H-2,3,5,10b-tetraaza-benzo[e]azulene-5-carboxylic acid tert-butyl ester], the Ki was 2.4 nM.

On to `CCO[C@H]1CC[C@H](c2nnc3n2-c2ccc(Cl)cc2CNC3)CC1` [Example 3, trans-8-Chloro-1-(4-ethoxy-cyclohexyl)-5,6-dihydro-4H-2,3,5,10b-tetraaza-benzo[e]azulene hydrochloride], for which the Ki was 63.1 nM.
